System: 885724-159-R-J1-PDC KRAS PDC multicell spheroid viability
Experiment: Anticancer human tumor 885724-159-R-J1-PDC patient-derived pancreatic adenocarcinoma cell line growth inhibition [KRAS2]
Details: for IC50: curve of first compound; for viability, T/C: stronger effect = lower value
Outline: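 Combination screen of spheroid viability in tumor-cell co-cultures with endothelial (HUVEC) and mesenchymal stem cell stroma. Each agent was tested in half-log dilutions, topping at clinical Cmax or at 10 microM without a known Cmax.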

[1] = second compound 0.1 µM, first compound 0.01 µM
[2] = second compound 0.1 µM, first compound 0.0316 µM
[3] = second compound 0.1 µM, first compound 0.1 µM
[4] = second compound 0.316 µM, first compound 0.01 µM
[5] = second compound 0.316 µM, first compound 0.0316 µM
[6] = second compound 0.316 µM, first compound 0.1 µM
[7] = second compound 1 µM, first compound 0.01 µM
[8] = second compound 1 µM, first compound 0.0316 µM
[9] = second compound 1 µM, first compound 0.1 µM
[10] = second compound 3.16 µM, first compound 0.01 µM
[11] = second compound 3.16 µM, first compound 0.0316 µM
[12] = second compound 3.16 µM, first compound 0.1 µM
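Note: spheroids exposed to agents for 7 days before readout.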

CC1COCCN1c1cc(-c2ccnn2C)c2ccnc(-c3ccn[nH]3)c2n1 (stereo not given) + CNCc1ccccc1-c1csc(C(C)Nc2nc(C)nc3cc(OC)c(OC)cc23)c1
IC50 (second compound 0.1 µM): > 3160 nM | IC50 (second compound 0.316 µM): > 3160 nM | IC50 (second compound 1 µM): > 3160 nM | IC50 (second compound 3.16 µM): < 10 nM | IC50 (second compound 10 µM): < 10 nM | viability, T/C [1]: 108% | viability, T/C [2]: 85.3% | viability, T/C [3]: 80.1% | viability, T/C (second compound 0.1 µM, first compound 0.316 µM): 61.4% | viability, T/C (second compound 0.1 µM, first compound 1 µM): 58.8% | viability, T/C (second compound 0.1 µM, first compound 3.16 µM): 58.8% | viability, T/C [4]: 108% | viability, T/C [5]: 90.4% | viability, T/C [6]: 73.8% | viability, T/C (second compound 0.316 µM, first compound 0.316 µM): 64.2% | viability, T/C (second compound 0.316 µM, first compound 1 µM): 57.8% | viability, T/C (second compound 0.316 µM, first compound 3.16 µM): 57.4% | viability, T/C [7]: 106% | viability, T/C [8]: 84.4% | viability, T/C [9]: 75.1% | viability, T/C (second compound 1 µM, first compound 0.316 µM): 64.7% | viability, T/C (second compound 1 µM, first compound 1 µM): 55.7% | viability, T/C (second compound 1 µM, first compound 3.16 µM): 56.8% | viability, T/C [10]: 2.14% | viability, T/C [11]: 0.77% | viability, T/C [12]: 0.58% | viability, T/C (second compound 3.16 µM, first compound 0.316 µM): 0.86% | viability, T/C (second compound 3.16 µM, first compound 1 µM): 1.55% | viability, T/C (second compound 3.16 µM, first compound 3.16 µM): 1.97% | viability, T/C (second compound 10 µM, first compound 0.01 µM): 0.21% | viability, T/C (second compound 10 µM, first compound 0.0316 µM): 0.23% | viability, T/C (second compound 10 µM, first compound 0.1 µM): 0.26% | viability, T/C (second compound 10 µM, first compound 0.316 µM): 0.24% | viability, T/C (second compound 10 µM, first compound 1 µM): 0.22% | viability, T/C (second compound 10 µM, first compound 3.16 µM): 0.28%

CC(C)n1nc(-c2ccc3oc(N)nc3c2)c2c(N)ncnc21 + C=CC(=O)N1CCN(c2nc(OCC3CCCN3C)nc3c2CCN(c2cccc4cccc(C)c24)C3)CC1CC#N
IC50 (second compound 0.0316 µM): 41.5 nM | IC50 (second compound 0.1 µM): 24.2 nM | IC50 (second compound 0.316 µM): 19.1 nM | IC50 (second compound 1 µM): 8.71 nM | IC50 (second compound 3.16 µM): 0.86 nM | viability, T/C (second compound 0.0316 µM, first compound 0.000316 µM): 88.8% | viability, T/C (second compound 0.0316 µM, first compound 0.001 µM): 77.3% | viability, T/C (second compound 0.0316 µM, first compound 0.00316 µM): 67.8% | viability, T/C (second compound 0.0316 µM, first compound 0.01 µM): 60.6% | viability, T/C (second compound 0.0316 µM, first compound 0.0316 µM): 49.9% | viability, T/C (second compound 0.0316 µM, first compound 0.1 µM): 45.9% | viability, T/C (second compound 0.1 µM, first compound 0.000316 µM): 88.1% | viability, T/C (second compound 0.1 µM, first compound 0.001 µM): 80.4% | viability, T/C (second compound 0.1 µM, first compound 0.00316 µM): 69.4% | viability, T/C [1]: 61.7% | viability, T/C [2]: 44.2% | viability, T/C [3]: 41.2% | viability, T/C (second compound 0.316 µM, first compound 0.000316 µM): 82.1% | viability, T/C (second compound 0.316 µM, first compound 0.001 µM): 73.8% | viability, T/C (second compound 0.316 µM, first compound 0.00316 µM): 61.4% | viability, T/C [4]: 55.6% | viability, T/C [5]: 45.1% | viability, T/C [6]: 41.8% | viability, T/C (second compound 1 µM, first compound 0.000316 µM): 81.9% | viability, T/C (second compound 1 µM, first compound 0.001 µM): 85.5% | viability, T/C (second compound 1 µM, first compound 0.00316 µM): 63.8% | viability, T/C [7]: 50.2% | viability, T/C [8]: 44.1% | viability, T/C [9]: 41.1% | viability, T/C (second compound 3.16 µM, first compound 0.000316 µM): 68.3% | viability, T/C (second compound 3.16 µM, first compound 0.001 µM): 43.1% | viability, T/C (second compound 3.16 µM, first compound 0.00316 µM): 42.9% | viability, T/C [10]: 15.3% | viability, T/C [11]: 24% | viability, T/C [12]: 15.7%

From PubChem BioAssay AID1963861 (Molecular Pharmacology Branch, DTP, NCI, 2024)
